Laboratory results reported in ChEMBL document CHEMBL1201861, “Genomics of Drug Sensitity in Cancer screening data, Wellcome Trust Sanger Institute”.

How the values were obtained:
Experiment in all cases: cells
COLO-824 = format: functional, cell-based, Homo sapiens; details: Homo sapiens, COLO-824
Description: SANGER: Inhibition of human COLO-824 cell growth in a cell viability assay.

COR-L88 = format: functional, cell-based; details: Homo sapiens;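 further: growth inhibition of COR-L88 cells, read out with a cell viability assay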
Description: SANGER: Inhibition of human COR-L88 cell growth in a cell viability assay.

NCI-H1650 = format: functional, cell-based, Homo sapiens; details: Homo sapiens, NCI-H1650;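 further: growth inhibition of human NCI-H1650 cells measured by a cell viability assay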
Description: SANGER: Inhibition of human NCI-H1650 cell growth in a cell viability assay.

CW-2 = format: functional, cell-based, Homo sapiens; details: Homo sapiens, CW-2;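 further: growth inhibition of CW-2 cells, read out by a cell viability assay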
Description: SANGER: Inhibition of human CW-2 cell growth in a cell viability assay.

LB2518-MEL = format: functional, cell-based, Homo sapiens; details: Homo sapiens, LB2518-MEL;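 further: growth inhibition of human LB2518-MEL cells, measured with a cell viability assay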
Description: SANGER: Inhibition of human LB2518-MEL cell growth in a cell viability assay.

ES3 = format: functional, cell-based, Homo sapiens; details: Homo sapiens, ES3;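 further: growth inhibition of ES3 cells, read out with a cell viability assay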
D-247MG = format: functional, cell-based, Homo sapiens; details: Homo sapiens, D-247MG
Description: SANGER: Inhibition of human D-247MG cell growth in a cell viability assay.

CP66-MEL = format: functional, cell-based, Homo sapiens; details: Homo sapiens, CP66-MEL;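 further: growth inhibition of CP66-MEL cells determined in a cell viability assay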
Description: SANGER: Inhibition of human CP66-MEL cell growth in a cell viability assay.

P30-OHK = format: functional, cell-based; details: Homo sapiens;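 further: growth inhibition of the P30-OHK cell line, read out with a cell viability assay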
Description: SANGER: Inhibition of human P30-OHK cell growth in a cell viability assay.

SK-N-FI = format: functional, cell-based, Homo sapiens; details: Homo sapiens, SK-N-FI;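 further: cell viability assay measuring growth inhibition of human SK-N-FI cells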
Description: SANGER: Inhibition of human SK-N-FI cell growth in a cell viability assay.

NCI-H23 = format: functional, cell-based, Homo sapiens; details: Homo sapiens, NCI-H23;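 further: cell viability assay measuring growth inhibition of NCI-H23 cells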
IST-MES1 = format: functional, cell-based, Homo sapiens; details: Homo sapiens, IST-MES1;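 further: growth inhibition of IST-MES1 cells, measured with a cell viability assay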
Description: SANGER: Inhibition of human IST-MES1 cell growth in a cell viability assay.

LB771-HNC = format: functional, cell-based, Homo sapiens; details: Homo sapiens, LB771-HNC;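 further: growth inhibition of LB771-HNC human cells, read out with a cell viability assay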
K562 = format: functional, cell-based; details: Homo sapiens
Description: SANGER: Inhibition of human K-562 cell growth in a cell viability assay.

GI-1 = format: functional, cell-based, Homo sapiens; details: Homo sapiens, GI-1;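 further: growth inhibition of human GI-1 cells, measured with a cell viability readout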
Description: SANGER: Inhibition of human GI-1 cell growth in a cell viability assay.

NCI-N87 = format: functional, cell-based, Homo sapiens; details: Homo sapiens, NCI-N87;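 further: growth inhibition of human NCI-N87 cells, read out with a cell viability assay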
Description: SANGER: Inhibition of human NCI-N87 cell growth in a cell viability assay.

EW-16 = format: functional, cell-based, Homo sapiens; details: Homo sapiens, EW-16;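 further: growth inhibition of human EW-16 cells, read out as cell viability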
Description: SANGER: Inhibition of human EW-16 cell growth in a cell viability assay.

NB13 = format: functional, cell-based, Homo sapiens; details: Homo sapiens, NB13;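 further: cell viability readout measuring growth inhibition of human NB13 cells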
Description: SANGER: Inhibition of human NB13 cell growth in a cell viability assay.

MMAC-SF = format: functional, cell-based, Homo sapiens; details: Homo sapiens, MMAC-SF;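 further: growth inhibition of human MMAC-SF cells, read out with a cell viability assay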
Description: SANGER: Inhibition of human MMAC-SF cell growth in a cell viability assay.

SF-268 = format: functional, cell-based, Homo sapiens; details: Homo sapiens, SF-268;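 further: growth inhibition of SF-268 cells determined with a cell viability assay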
K5 = format: functional, cell-based, Homo sapiens; details: Homo sapiens, K5
MN-60 = format: functional, cell-based; details: Homo sapiens;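 further: growth inhibition of the MN-60 cell line, determined with a cell viability assay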
Description: SANGER: Inhibition of human MN-60 cell growth in a cell viability assay.

VA-ES-BJ = format: functional, cell-based, Homo sapiens; details: Homo sapiens, VA-ES-BJ;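 further: growth inhibition of the VA-ES-BJ cell line, read out by a cell viability assay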
Description: SANGER: Inhibition of human VA-ES-BJ cell growth in a cell viability assay.

NB69 = format: functional, cell-based, Homo sapiens; details: Homo sapiens, NB69;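 further: growth inhibition of NB69 cells, determined by a cell viability assay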
Description: SANGER: Inhibition of human NB69 cell growth in a cell viability assay.

DMS-114 = format: functional, cell-based, Homo sapiens; details: Homo sapiens, DMS-114
HD-MY-Z = format: functional, cell-based, Homo sapiens; details: Homo sapiens, HD-MY-Z;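 further: growth inhibition of HD-MY-Z cells, read out with a cell viability assay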
Description: SANGER: Inhibition of human HD-MY-Z cell growth in a cell viability assay.

Compound	IC50 (COLO-824)	IC50 (COR-L88)	IC50 (CW-2)	IC50 (LB2518-MEL)	IC50 (ES3)	IC50 (D-247MG)	IC50 (CP66-MEL)	IC50 (P30-OHK)	IC50 (SK-N-FI)	IC50 (NCI-H23)	IC50 (IST-MES1)	IC50 (LB771-HNC)	IC50 (K562)	IC50 (GI-1)	IC50 (EW-16)	IC50 (NB13)	IC50 (MMAC-SF)	IC50 (SF-268)	IC50 (K5)	IC50 (MN-60)	also measured
C=C1C(=O)O[C@@H]2C3O[C@]3(C)CC/C=C(\C)CC[C@@H]12 (stereo not given in full)	> 5000 nM	> 5000 nM	> 5 µM	> 5000 nM	> 5 µM	> 5000 nM	> 5000 nM	> 5 µM	> 5 µM	> 5 µM	> 5000 nM	> 5000 nM	> 5000 nM	> 5000 nM	> 5000 nM	> 5000 nM	> 5000 nM	> 5000 nM	> 5000 nM	> 5000 nM	IC50 (NCI-H1650): > 5 µM; IC50 (NCI-N87): > 5000 nM; IC50 (VA-ES-BJ): > 5000 nM; IC50 (NB69): > 5000 nM; IC50 (DMS-114): > 5000 nM; IC50 (HD-MY-Z): > 5 µM
CC1=C2C[C@H]3[C@@H](CC=C4C[C@@H](O)CC[C@@]43C)[C@@H]2CC[C@]12O[C@@H]1C[C@H](C)CN[C@H]1[C@H]2C [CYCLOPAMINE]	> 16000 nM	> 16000 nM	> 16 µM	> 16000 nM	> 16 µM	> 16000 nM	> 16000 nM	> 16 µM	> 16 µM	> 16 µM	> 16000 nM	> 16000 nM	> 16000 nM	> 16000 nM	> 16000 nM	> 16000 nM	> 16000 nM	> 16000 nM	> 16000 nM	> 16000 nM	IC50 (NCI-H1650): > 16 µM; IC50 (VA-ES-BJ): > 16000 nM; IC50 (NB69): > 16000 nM; IC50 (DMS-114): > 16000 nM; IC50 (HD-MY-Z): > 16 µM
CS(=O)(=O)CCNCc1ccc(-c2ccc3ncnc(Nc4ccc(OCc5cccc(F)c5)c(Cl)c4)c3c2)o1 [LAPATINIB]	> 2000 nM	> 2000 nM	> 2 µM	> 2000 nM	> 2 µM	> 2000 nM	> 2000 nM	> 2 µM	> 2 µM	> 2 µM	> 2000 nM	> 2000 nM	> 2000 nM	> 2000 nM	> 2000 nM	> 2000 nM	> 2000 nM	> 2000 nM	> 2000 nM	> 2000 nM	IC50 (NCI-H1650): > 2 µM; IC50 (VA-ES-BJ): > 2000 nM; IC50 (NB69): > 2000 nM; IC50 (DMS-114): > 2000 nM; IC50 (HD-MY-Z): > 2 µM
CCc1nc(N)nc(N)c1-c1ccc(Cl)cc1 [PYRIMETHAMINE]	> 20000 nM	> 20000 nM	> 20 µM	> 20000 nM	> 20 µM	> 20000 nM	> 20000 nM	> 20 µM	> 20 µM	6.54 µM	> 20000 nM	> 20000 nM	> 20000 nM	> 20000 nM	15800 nM	> 20000 nM	> 20000 nM	3600 nM	> 20000 nM	> 20000 nM	IC50 (NCI-H1650): > 20 µM; IC50 (VA-ES-BJ): 15200 nM; IC50 (NB69): > 20000 nM; IC50 (DMS-114): > 20000 nM; IC50 (HD-MY-Z): 11.9 µM
O=C(/C=C/c1ccccc1)NC(NC(=S)Nc1cccc2cccnc12)C(Cl)(Cl)Cl (stereo not given) [SALUBRINAL]	> 16000 nM	> 16000 nM	> 16 µM	7970 nM	> 16 µM	> 16000 nM	> 16000 nM	> 16 µM	> 16 µM	> 16 µM	> 16000 nM	> 16000 nM	11000 nM	> 16000 nM	> 16000 nM	> 16000 nM	> 16000 nM	> 16000 nM	> 16000 nM	> 16000 nM	IC50 (NCI-H1650): > 16 µM; IC50 (VA-ES-BJ): > 16000 nM; IC50 (NB69): > 16000 nM; IC50 (DMS-114): > 16000 nM; IC50 (HD-MY-Z): > 16 µM
CN1CCN(CCOc2cc(OC3CCOCC3)c3c(Nc4c(Cl)ccc5c4OCO5)ncnc3c2)CC1 [SARACATINIB]	> 2000 nM	> 2000 nM	> 2 µM	> 2000 nM	> 2 µM	> 2000 nM	> 2000 nM	> 2 µM	> 2 µM	> 2 µM	> 2000 nM	> 2000 nM	450 nM	> 2000 nM	1550 nM	> 2000 nM	> 2000 nM	> 2000 nM	> 2000 nM	> 2000 nM	IC50 (VA-ES-BJ): > 2000 nM; IC50 (NB69): 1370 nM; IC50 (DMS-114): > 2000 nM; IC50 (HD-MY-Z): > 2 µM
CO[C@H]1C[C@@H]2CC[C@@H](C)[C@@](O)(O2)C(=O)C(=O)N2CCCC[C@H]2C(=O)O[C@H]([C@H](C)C[C@@H]2CC[C@@H](O)[C@H](OC)C2)CC(=O)[C@H](C)/C=C(\C)[C@@H](O)[C@@H](OC)C(=O)[C@H](C)C[C@H](C)/C=C/C=C/C=C/1C [SIROLIMUS]	> 100 nM	> 100 nM	> 0.1 µM	> 100 nM	> 0.1 µM	> 100 nM	> 100 nM	> 0.1 µM	> 0.1 µM	> 0.1 µM	> 100 nM	> 100 nM	> 100 nM	70.4 nM	26.9 nM	4.36 nM	> 100 nM	> 100 nM	> 100 nM	> 100 nM	IC50 (NCI-H1650): > 0.1 µM; IC50 (NCI-N87): > 100 nM; IC50 (VA-ES-BJ): 0.723 nM; IC50 (NB69): > 100 nM; IC50 (DMS-114): > 100 nM; IC50 (HD-MY-Z): > 0.1 µM
CNC(=O)c1cc(Oc2ccc(NC(=O)Nc3ccc(Cl)c(C(F)(F)F)c3)cc2)ccn1 [SORAFENIB]	> 4000 nM	> 4000 nM	> 4 µM	1210 nM	> 4 µM	2140 nM	> 4000 nM	> 4 µM	> 4 µM	> 4 µM	> 4000 nM	> 4000 nM	> 4000 nM	> 4000 nM	> 4000 nM	> 4000 nM	> 4000 nM	> 4000 nM	> 4000 nM	> 4000 nM	IC50 (VA-ES-BJ): > 4000 nM; IC50 (NB69): > 4000 nM; IC50 (DMS-114): > 4000 nM; IC50 (HD-MY-Z): > 4 µM
CCC(=O)N1CCN(c2ccc(-n3c(=O)ccc4cnc5ccc(-c6cnc7ccccc7c6)cc5c43)cc2C(F)(F)F)CC1 [TORIN1]	878 nM	1110 nM	> 1.2 µM	87 nM	> 1.2 µM	> 1200 nM	314 nM	> 1.2 µM	> 1.2 µM	0.0844 µM	235 nM	75.5 nM	91.2 nM	24.7 nM	11.9 nM	47.8 nM	26.3 nM	98.2 nM	64 nM	299 nM	IC50 (NCI-H1650): > 1.2 µM; IC50 (VA-ES-BJ): 9.84 nM; IC50 (NB69): 322 nM; IC50 (DMS-114): 240 nM; IC50 (HD-MY-Z): 0.0243 µM
Cc1cc(Nc2cc(N3CCN(C)CC3)nc(Sc3ccc(NC(=O)C4CC4)cc3)n2)n[nH]1 [TOZASERTIB]	> 2000 nM	> 2000 nM	> 2 µM	> 2000 nM	> 2 µM	> 2000 nM	> 2000 nM	> 2 µM	> 2 µM	> 2 µM	> 2000 nM	> 2000 nM	435 nM	> 2000 nM	238 nM	280 nM	> 2000 nM	> 2000 nM	> 2000 nM	> 2000 nM	IC50 (NCI-H1650): > 2 µM; IC50 (VA-ES-BJ): 201 nM; IC50 (NB69): > 2000 nM; IC50 (DMS-114): > 2000 nM; IC50 (HD-MY-Z): > 2 µM
